Experimental data as given in PubChem BioAssay (NCI).
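Abbreviation: GI50, concentration required for 50% inhibition of growth. The concentration for full growth arrest is given as TGI.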

Assays:
Assay in all cases: NCI tumour cell line growth inhibition, 384-well format
MDA-MB-231 breast = test system: MDA-MB-231 breast
NCI-H23 lung = test system: NCI-H23 lung
BT-549 breast = test system: BT-549 breast
HL-60(TB) leukemia = test system: HL-60(TB) leukemia
K-562 leukemia = test system: K-562 leukemia
COLO 205 colon = test system: COLO 205 colon
SNB-19 CNS = test system: SNB-19 CNS
CCRF-CEM leukemia = test system: CCRF-CEM leukemia
SR leukemia = test system: SR leukemia
DU-145 prostate = test system: DU-145 prostate
HOP-62 NSCLC = test system: HOP-62 NSCLC
HCT-15 colon = test system: HCT-15 colon
SK-MEL-2 melanoma = test system: SK-MEL-2 melanoma
MDA-MB-435 melanoma = test system: MDA-MB-435 melanoma
TK-10 renal = test system: TK-10 renal
HS 578T breast = test system: HS 578T breast
OVCAR-4 ovarian = test system: OVCAR-4 ovarian
MDA-MB-468 breast = test system: MDA-MB-468 breast
A549 NSCLC = test system: A549 NSCLC
786-0 renal = test system: 786-0 renal
NCI-H522 lung = test system: NCI-H522 lung
U251 glioblastoma = test system: U251 glioblastoma
NCI/ADR-RES ovarian = test system: NCI/ADR-RES ovarian
MALME-3M melanoma = test system: MALME-3M melanoma
RXF 393 renal = test system: RXF 393 renal
SK-OV-3 ovarian = test system: SK-OV-3 ovarian
OVCAR-5 ovarian = test system: OVCAR-5 ovarian
OVCAR-3 ovarian = test system: OVCAR-3 ovarian
RPMI-8226 leukemia = test system: RPMI-8226 leukemia
SN12C renal = test system: SN12C renal
EKVX NSCLC = test system: EKVX NSCLC
LOX IMVI melanoma = test system: LOX IMVI melanoma
NCI-H460 NSCLC = test system: NCI-H460 NSCLC
SW-620 colon = test system: SW-620 colon
SF-539 CNS = test system: SF-539 CNS
A498 renal = test system: A498 renal
UO-31 renal = test system: UO-31 renal
MCF7 breast = test system: MCF7 breast
T-47D breast = test system: T-47D breast
CAKI-1 renal = test system: CAKI-1 renal
HCT-116 colon = test system: HCT-116 colon
MOLT-4 leukemia = test system: MOLT-4 leukemia
NCI-H322M lung = test system: NCI-H322M lung
SK-MEL-5 melanoma = test system: SK-MEL-5 melanoma
IGROV1 ovarian = test system: IGROV1 ovarian
ACHN renal = test system: ACHN renal
HOP-92 NSCLC = test system: HOP-92 NSCLC
KM12 colon = test system: KM12 colon
PC-3 prostate = test system: PC-3 prostate
SK-MEL-28 melanoma = test system: SK-MEL-28 melanoma
SF-268 CNS = test system: SF-268 CNS

COc1ccccc1S(=O)(=O)Nc1ccc2c(c1)CN(C)C(=O)N2 was tested, and the GI50 (MDA-MB-231 breast) was 32.4 nM, the TGI (MDA-MB-231 breast) was > 100000 nM and the GI50 (NCI-H23 lung) was 16.3 nM. The TGI (NCI-H23 lung) was 53.7 nM, the GI50 (BT-549 breast) was < 10 nM and the TGI (BT-549 breast) was 32.4 nM. For the same compound, the GI50 (HL-60(TB) leukemia) was < 10 nM, the TGI (HL-60(TB) leukemia) was 13.1 nM and the GI50 (K-562 leukemia) was < 10 nM. The TGI (K-562 leukemia) was 18 nM, the GI50 (COLO 205 colon) was < 10 nM and the TGI (COLO 205 colon) was 62.6 nM. For the same compound, the GI50 (SNB-19 CNS) was 19.8 nM, the TGI (SNB-19 CNS) was 20000 nM and the GI50 (CCRF-CEM leukemia) was < 10 nM. For the same compound, the TGI (CCRF-CEM leukemia) was < 10 nM, the GI50 (SR leukemia) was < 10 nM and the TGI (SR leukemia) was < 10 nM. The GI50 (DU-145 prostate) was 20.2 nM, the TGI (DU-145 prostate) was 58.1 nM and the GI50 (HOP-62 NSCLC) was 20.8 nM. The TGI (HOP-62 NSCLC) was > 100000 nM, the GI50 (HCT-15 colon) was 12.6 nM and the TGI (HCT-15 colon) was 46.9 nM. For the same compound, the GI50 (SK-MEL-2 melanoma) was 18.1 nM, the TGI (SK-MEL-2 melanoma) was 39.3 nM and the GI50 (MDA-MB-435 melanoma) was < 10 nM. For the same compound, the TGI (MDA-MB-435 melanoma) was < 10 nM, the GI50 (TK-10 renal) was < 10 nM and the TGI (TK-10 renal) was > 100000 nM. For the same compound, the GI50 (HS 578T breast) was < 10 nM, the TGI (HS 578T breast) was 19.2 nM and the GI50 (OVCAR-4 ovarian) was 16.2 nM. For the same compound, the TGI (OVCAR-4 ovarian) was > 100000 nM, the GI50 (MDA-MB-468 breast) was 17.1 nM and the TGI (MDA-MB-468 breast) was 34.7 nM. For the same compound, the GI50 (A549 NSCLC) was 33.1 nM, the TGI (A549 NSCLC) was > 100000 nM and the GI50 ([…]-0 renal) was 16.7 nM. For the same compound, the TGI (786-0 renal) was 15900 nM, the GI50 (NCI-H522 lung) was < 10 nM and the TGI (NCI-H522 lung) was < 10 nM. For the same compound, the GI50 (U251 glioblastoma) was 26.7 nM, the TGI (U251 glioblastoma) was 82.2 nM and the GI50 (NCI/ADR-RES ovarian) was 12 nM. For the same compound, the TGI (NCI/ADR-RES ovarian) was 27.1 nM, the GI50 (MALME-3M melanoma) was < 10 nM and the TGI (MALME-3M melanoma) was > 100000 nM. The GI50 (RXF 393 renal) was < 10 nM, the TGI (RXF 393 renal) was < 10 nM and the GI50 (SK-OV-3 ovarian) was < 10 nM. For the same compound, the TGI (SK-OV-3 ovarian) was 7040 nM, the GI50 (OVCAR-5 ovarian) was 26 nM and the TGI (OVCAR-5 ovarian) was > 100000 nM. It also gave a GI50 (OVCAR-3 ovarian) of 12 nM, a TGI (OVCAR-3 ovarian) of 33.2 nM and a GI50 (RPMI-8226 leukemia) of 19.5 nM. The TGI (RPMI-8226 leukemia) was 37.3 nM, the GI50 (SN12C renal) was 24.7 nM and the TGI (SN12C renal) was > 100000 nM. For the same compound, the GI50 (EKVX NSCLC) was 20.5 nM, the TGI (EKVX NSCLC) was > 100000 nM and the GI50 (LOX IMVI melanoma) was 21.3 nM. For the same compound, the TGI (LOX IMVI melanoma) was 87.1 nM, the GI50 (NCI-H460 NSCLC) was 21.3 nM and the TGI (NCI-H460 NSCLC) was 45.3 nM. The GI50 (SW-620 colon) was 31.1 nM, the TGI (SW-620 colon) was > 100000 nM and the GI50 (SF-539 CNS) was 14.4 nM. For the same compound, the TGI (SF-539 CNS) was 37.6 nM, the GI50 (A498 renal) was < 10 nM and the TGI (A498 renal) was 60700 nM. For the same compound, the GI50 (UO-31 renal) was 20.6 nM, the TGI (UO-31 renal) was > 100000 nM and the GI50 (MCF7 breast) was 35.9 nM. The TGI (MCF7 breast) was 12300 nM, the GI50 (T-47D breast) was 17200 nM and the TGI (T-47D breast) was > 100000 nM. The GI50 (CAKI-1 renal) was < 10 nM, the TGI (CAKI-1 renal) was > 100000 nM and the GI50 (HCT-116 colon) was 14.5 nM. The TGI (HCT-116 colon) was 77.3 nM, the GI50 (MOLT-4 leukemia) was < 10 nM and the TGI (MOLT-4 leukemia) was 19.5 nM. For the same compound, the GI50 (NCI-H322M lung) was 18.8 nM, the TGI (NCI-H322M lung) was > 100000 nM and the GI50 (SK-MEL-5 melanoma) was < 10 nM. It also gave a TGI (SK-MEL-5 melanoma) of 12.9 nM, a GI50 (IGROV1 ovarian) of 22.5 nM and a TGI (IGROV1 ovarian) of 73600 nM. The GI50 (ACHN renal) was 15.3 nM, the TGI (ACHN renal) was > 100000 nM and the GI50 (HOP-92 NSCLC) was < 10 nM. It also gave a TGI (HOP-92 NSCLC) of 66800 nM, a GI50 (KM12 colon) of 18.8 nM and a TGI (KM12 colon) of 71.4 nM. The GI50 (PC-3 prostate) was < 10 nM, the TGI (PC-3 prostate) was > 100000 nM and the GI50 (SK-MEL-28 melanoma) was < 10 nM. The TGI (SK-MEL-28 melanoma) was > 100000 nM, the GI50 (SF-268 CNS) was 20.3 nM and the TGI (SF-268 CNS) was 134 nM.
